# Assay results taken from paper PMC3070790 (Bioorganic & medicinal chemistry letters, 2011).
# Entries after “also recorded” stand apart in the source; their conditions may differ. Like-named read-outs stand apart in the source and are kept apart here.
# Assays:
# [1] = system: primary rat cerebellar neurons; type: cell-based
# [2] = biological target: T1, light chain of BoNT serotype A (LC/A) (Clostridium botulinum, UniProt P0DPI1); type: biochemical
# [3] = biological target: T1, light chain of BoNT serotype A (LC/A); conditions: cited from earlier work
# T1 sequence (P0DPI1 2-448 limits assumed): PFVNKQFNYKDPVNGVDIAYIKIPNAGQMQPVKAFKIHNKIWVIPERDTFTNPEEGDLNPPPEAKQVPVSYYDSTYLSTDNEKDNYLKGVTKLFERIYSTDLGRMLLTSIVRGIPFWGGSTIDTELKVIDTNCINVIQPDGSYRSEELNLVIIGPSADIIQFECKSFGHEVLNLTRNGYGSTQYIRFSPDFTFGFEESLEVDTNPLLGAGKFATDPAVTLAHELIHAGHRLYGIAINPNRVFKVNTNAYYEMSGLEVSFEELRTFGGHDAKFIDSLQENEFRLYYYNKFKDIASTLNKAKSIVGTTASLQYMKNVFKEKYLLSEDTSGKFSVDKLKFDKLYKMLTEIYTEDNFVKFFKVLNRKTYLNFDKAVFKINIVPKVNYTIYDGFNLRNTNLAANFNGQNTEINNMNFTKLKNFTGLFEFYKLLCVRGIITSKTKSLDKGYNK
Structure (SMILES),protection against BoNT/A (intracellular SNAP-25 cleavage) [1],Ki [2],mechanism of inhibition [2],fold less potent than 7 (Ki) [2],mechanism of inhibition [3]
"C=C(C)[C@@H]1CC[C@]2(COC(=O)CCC(=O)O)CC[C@]3(C)[C@H](CC[C@@H]4[C@@]5(C)CC[C@H](O)C(C)(C)[C@@H]5CC[C@]43C)[C@@H]12 [Compound 7, 28-hemisuccinylbetulin]",did not show any protection; also recorded: did not show inhibitory activity; also recorded: did not demonstrate protection,sub-micromolar,competitive,,
"C=C(C)[C@@H]1CC[C@]2(COC(=O)COc3cc(C(C)C)ccc3C)CC[C@]3(C)[C@H](CC[C@@H]4[C@@]5(C)CC[C@H](O)C(C)(C)[C@@H]5CC[C@]43C)[C@@H]12 [Compound 8, betulinyl 28-carboxymethoxycarvacrolate]",,,competitive,about 16 fold,
"C=C(C)[C@@H]1CC[C@]2(C(=O)O)CC[C@]3(C)[C@H](CC[C@@H]4[C@@]5(C)CC[C@H](O)C(C)(C)[C@@H]5CC[C@]43C)[C@@H]12 [Compound 18, betulinic acid]",,,competitive,~18 fold,
O=C(/C=C/c1ccc(O)c(O)c1)O[C@H](C(=O)O)[C@H](OC(=O)/C=C/c1ccc(O)c(O)c1)C(=O)O [D-chicoric acid],,,,,noncompetitive partial inhibition
